Target: T1, mPGES-1 (Homo sapiens, UniProt O14684)
T1 construct: made in house; host or cells: E. coli
T1 sequence (O14684 1-152): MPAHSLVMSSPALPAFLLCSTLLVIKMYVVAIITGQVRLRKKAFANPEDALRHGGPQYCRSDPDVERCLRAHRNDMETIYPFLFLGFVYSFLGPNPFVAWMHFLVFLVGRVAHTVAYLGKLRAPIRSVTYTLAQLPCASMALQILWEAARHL
Experiment: mPGES-1 biological test: conversion of PGH2 to PGE2, PGE2 quantified by HPLC
Assay type: biochemical
Settings: mPGES-1 expressed in E. coli, membrane fraction; 25 min preincubation with inhibitor, 60 s with PGH2, room temperature; read-out: IC50 (inhibition of mPGES-1)
Method: In the assay mPGES-1 catalyses the reaction where the substrate PGH2 is converted to PGE2. mPGES-1 is expressed in E. coli and the membrane fraction is dissolved in 20 mM NaPi-buffer pH 8.0 and stored at −80° C. In the assay mPGES-1 is dissolved in 0.1M KPi-buffer pH 7.35 with 2.5 mM glutathione. The stop solution consists of H2O/MeCN (7/3), containing FeCl2 (25 mM) and HCl (0.15 M). The assay is performed at room temperature in 96-well plates. Analysis of the amount of PGE2 is performed with reversed phase HPLC (Waters 2795 equipped with a 3.9×150 mm C18 column). The mobile phase consists of H2O/MeCN (7/3), containing TFA (0.056%), and absorbance is measured at 195 nm with a Waters 2487 UV-detector.
The following is added chronologically to each well: • 1. 100 μL mPGES-1 in KPi-buffer with glutathione. Total protein concentration: 0.02 mg/mL. • 2. 1 μL inhibitor in DMSO. Incubation of the plate at room temperature for 25 minutes. • 3. 4 μL of a 0.25 mM PGH2 solution. Incubation of the plate at room temperature for 60 seconds. • 4. […] stop solution. • 180 μL per sample is analyzed with HPLC.

| IC50 [µM] | SMILES |
| --- | --- |
| 1.9 | CCOC(=O)c1c(C(=O)O)c2cc(-c3ccc(C(F)(F)F)cc3)ccc2n1-c1ccc(OC2CCCC2)cc1 [Example 67, 1-(4-Cyclopentyloxyphenyl)-5-(4-trifluoromethylphenyl)indole-2,3-dicarboxylic acid 2-ethyl ester] |
| 6.9 | CC(=O)NC(Cc1c(C(=O)O)n(-c2ccc(OC3CCCC3)cc2)c2ccc(-c3ccc(C(F)(F)F)cc3)cc12)C(=O)O (centres unmarked) [Example 85, 3-(2-Acetylamino-2-carboxyethyl)-1-(4-cyclopentyloxyphenyl)-5-(4-trifluoromethylphenyl)indole-2-carboxylic acid] |

The remaining lines, values behind:

| SMILES | IC50 [µM] |
| --- | --- |
| CC(C)Oc1ccc(-n2c(C(=O)O)c(C(=O)O)c3cc(Oc4ccc(C(F)(F)F)cn4)ccc32)cc1 [Example 19, 1-(4-Isopropoxyphenyl)-5-(5-trifluoromethylpyridin-2-yloxy)indole-2,3-dicarboxylic acid] | 4.3 |
| CC(C)Oc1ccc(-n2c(C(=O)O)c(CN3CCCC3C(=O)O)c3cc(-c4ccc(C(C)(C)C)cc4)ccc32)cc1 (centres unmarked) [Example 87, 1-[5-(4-tert-Butylphenyl)-2-carboxy-1-(4-isopropoxyphenyl)indol-3-ylmethyl]-2-carboxypyrrolidinium chloride] | 2.3 |
| CC(C)Oc1ccc(-n2c(C(=O)O)c(CCC(=O)O)c3cc(-c4ccc(C(F)(F)F)cn4)ccc32)cc1 [Example 88, 3-(2-Carboxyethyl)-1-(4-isopropoxyphenyl)-5-(5-trifluoromethylpyridin-2-yl)indole-2-carboxylic acid] | 5.4 |

— US8097623B2, “Indoles useful in the treatment of inflammation” (Biolipox AB, priority 2005, dated 2012)
